39 compounds from ChEMBL document CHEMBL1156829 (Proc Natl Acad Sci U S A, 2008) can be followed below.

Data set [1] in a line: NOVARTIS: Cytotoxicity against human hepatocellular carcinoma cell line (Huh7). Type of data set: toxicity, cell-based, Huh-7. The conditions noted are these: Huh7 cells (hepatocellular carcinoma cell line).
The subject of data set [2] is Plasmodium falciparum. Nature of the data set: NOVARTIS: Inhibition of Plasmodium falciparum W2 (drug-resistant) proliferation in erythrocyte-based infection assay. Type of data set: functional, organism-based. The conditions noted are these: Plasmodium falciparum, W2; read-out: EC50.
The subject of data set [3] is Plasmodium falciparum. Nature of the data set: NOVARTIS: Inhibition of Plasmodium falciparum 3D7 (drug-susceptible) proliferation in erythrocyte-based infection assay. Type of data set: functional, organism-based. The conditions noted are these: Plasmodium falciparum, 3D7.

As for `c1ccc(CSc2nc3ccncc3[nH]2)cc1`, the half-maximal cytotoxic concentration (CC50) in data set [1] was above 10000 nM. For the same compound, the EC50 was above 1150 nM with Plasmodium falciparum [2] and above 1250 nM in the data set with Plasmodium falciparum [3].

Turning to `COc1cc(OC)cc(-n2c(=O)c3sccc3n(CC(=O)c3ccc(F)cc3)c2=O)c1`, the CC50 in data set [1] is above 10000 nM. Further, the EC50 in the data set with Plasmodium falciparum [2] was above 1170 nM; in the data set on Plasmodium falciparum [3] it was above 1250 nM.

Consider `CCCNC(=O)CSc1nc(C)c(Cc2ccccc2)c(=O)n1C`, for which the CC50 in data set [1] was above 10000 nM. Moreover, the EC50 in the data set with Plasmodium falciparum [2] was 1170 nM; in the data set on Plasmodium falciparum [3], 1280 nM.

As to `CCN(CC)S(=O)(=O)c1cc(C(=O)O)ccc1Cl`, in data set [1], the CC50 was above 10000 nM. For the same compound, the EC50 with Plasmodium falciparum [2] is above 1170 nM; in the data set with Plasmodium falciparum [3], 640 nM.

For the compound `CN1CCC(N[C@@H]2C[C@@H](C(=O)N3CCN(c4cccc(C(F)(F)F)c4)CC3)N(Cc3ccccc3Cl)C2)CC1`, the CC50 in data set [1] is above 10000 nM. Also, the figures for the EC50 with Plasmodium falciparum [2] and with Plasmodium falciparum [3] were above 1170 nM and above 1250 nM, respectively.

`O=C(Cc1ccc(F)cc1Cl)N1CCN(c2cccc3c2C(=O)N(Cc2ccccn2)C3=O)CC1` returned a CC50 in data set [1] above 10000 nM. For the same compound, the EC50 was above 1170 nM in the data set with Plasmodium falciparum [2] and above 1250 nM in the data set with Plasmodium falciparum [3].

`CC(C)c1ccc(OCC(=O)NN=Cc2cccc([N+](=O)[O-])c2)cc1` returned a CC50 in data set [1] above 10000 nM. Further, the EC50 in the data set on Plasmodium falciparum [2] was above 1170 nM; with Plasmodium falciparum [3], above 1250 nM.

As to `O=C(COc1ccc(-c2ncccn2)cc1CN1CCCCCC1)NCc1ccccc1C(F)(F)F`, in data set [1], the CC50 was above 10000 nM. Further, the results for the EC50 with Plasmodium falciparum [2] and in the data set with Plasmodium falciparum [3] were above 1150 nM and above 1250 nM, respectively.

As for `Cc1c(Cl)cccc1NC(=O)c1cccnc1Cl`, the CC50 in data set [1] is above 10000 nM. Moreover, the EC50 in the data set with Plasmodium falciparum [2] was above 1140 nM; in the data set with Plasmodium falciparum [3], above 1250 nM.

In the case of `COc1ccc(C2C(C(N)=O)=C(C)Nc3ncnn32)cc1OC` (configuration not stated), the CC50 in data set [1] is above 10000 nM. For the same compound, the results for the EC50 in the data set on Plasmodium falciparum [2] and in the data set with Plasmodium falciparum [3] were 1150 nM and 380 nM, respectively.

In data set [1], `N#C/C(=C\c1cn(Cc2ccc(Cl)cc2Cl)c2ccccc12)c1nc2ccccc2[nH]1` returned a CC50 above 10000 nM. Also, the EC50 with Plasmodium falciparum [2] came to 1150 nM; in the data set with Plasmodium falciparum [3] it was 315 nM.

Regarding `Cc1cc(C)c(CSC(=N)N)c(C)c1CSC(=N)N`, the CC50 in data set [1] is above 10000 nM. The figures for the EC50 with Plasmodium falciparum [2] and in the data set with Plasmodium falciparum [3] were above 1140 nM and 1120 nM, respectively.

As to `CC(C)CNC(=O)c1cnc(NCCCN2CCCCC2C)nc1NCC1CCCCC1` (configuration not stated), in data set [1], the half-maximal cytotoxic concentration (CC50) was above 10000 nM. The EC50 came to 1170 nM with Plasmodium falciparum [2] and 434 nM in the data set with Plasmodium falciparum [3].

Take `COc1ccc(OCC(=O)Nc2c(C)n(C)n(-c3ccccc3)c2=O)cc1`: in data set [1], the CC50 is above 10000 nM. For the same compound, the EC50 is above 1160 nM with Plasmodium falciparum [2] and above 1250 nM in the data set on Plasmodium falciparum [3].

In data set [1], `CCC(c1nc2ccccc2c(=O)n1-c1ccc(F)cc1)N(CCc1ccccc1)C(=O)COc1ccccc1` (configuration not stated) gave a CC50 above 10000 nM. Also, the figures for the EC50 in the data set on Plasmodium falciparum [2] and in the data set with Plasmodium falciparum [3] were 1140 nM and 1030 nM, respectively.

As for `CCC(=O)c1c(C)n(-c2ccc(Br)cc2)c2ccc(O)cc12`, the CC50 in data set [1] is above 10000 nM. Also, the EC50 was 1140 nM with Plasmodium falciparum [2] and above 769 nM in the data set with Plasmodium falciparum [3].

For the compound `COc1ccc(CCNC(=O)c2cc(S(=O)(=O)N3CCC4(CC3)OCCO4)ccc2F)cc1OC`, in data set [1], the CC50 is above 10000 nM. For the same compound, the EC50 in the data set with Plasmodium falciparum [2] is above 1160 nM; in the data set on Plasmodium falciparum [3] it was above 1250 nM.

As to `CCOC(=O)c1cnc2ccc(OCC)cc2c1NCC1CCCN1CC` (configuration not stated), the CC50 in data set [1] was above 10000 nM. The EC50 was 1150 nM in the data set on Plasmodium falciparum [2] and above 740 nM in the data set with Plasmodium falciparum [3].

In turn, `COc1ccc(Br)cc1S(=O)(=O)N1CCCc2ccccc21` returned a CC50 in data set [1] above 100000 nM. The figures for the EC50 in the data set on Plasmodium falciparum [2] and in the data set on Plasmodium falciparum [3] were 11400 nM and 9950 nM, respectively.

In data set [1], `COC(=O)c1c(-c2c(Cl)cccc2Cl)noc1C=CNc1ccccc1` registered a CC50 of 76800 nM. The results for the EC50 in the data set on Plasmodium falciparum [2] and in the data set on Plasmodium falciparum [3] were 8790 nM and above 12500 nM, respectively.

In the case of `Cc1ccc(C(=O)C(C)[n+]2ccc(N(C)C)cc2)cc1` (configuration not stated), the CC50 in data set [1] amounted to 35300 nM. For the same compound, the EC50 in the data set with Plasmodium falciparum [2] is 4040 nM; in the data set on Plasmodium falciparum [3] it was 438 nM.

In data set [1], `COc1ccc(NC(=O)/C=C/c2ccccc2Cl)cc1` showed a CC50 above 10000 nM. Further, the EC50 in the data set with Plasmodium falciparum [2] is above 1140 nM; in the data set with Plasmodium falciparum [3], above 1250 nM.

As for `NCCNC(=O)COC(c1cccnc1)c1ccccc1Cl` (configuration not stated), the 50% cytotoxic concentration (CC50) in data set [1] was above 10000 nM. Besides, the EC50 in the data set on Plasmodium falciparum [2] was above 1150 nM; in the data set on Plasmodium falciparum [3], above 1250 nM.

Turning to `CCCCCCN(C(=O)COc1ccc(Cl)cc1)C(CC)c1nc2ccccc2c(=O)n1-c1cccc(Cl)c1` (configuration not stated), the CC50 in data set [1] is above 10000 nM. Besides, the EC50 in the data set on Plasmodium falciparum [2] was determined as 1140 nM; in the data set on Plasmodium falciparum [3] it was 433 nM.

For the compound `COC(=O)C1=C(C(=O)OC)SC(=C2C(=S)C(C)(C)N(C(=O)c3ccc([N+](=O)[O-])cc3)c3ccc(C)cc32)S1`, the half-maximal cytotoxic concentration (CC50) in data set [1] is above 10000 nM. Also, the EC50 in the data set with Plasmodium falciparum [2] is above 1150 nM; in the data set with Plasmodium falciparum [3], above 371 nM.

In turn, `CC(C)CNC(=O)c1cnc(NCCC2CCCN2C)nc1NC1CCCC1` (configuration not stated) had a CC50 in data set [1] above 10000 nM. In addition, the EC50 stood at 1140 nM with Plasmodium falciparum [2] and 908 nM in the data set on Plasmodium falciparum [3].

Regarding `COc1ccc(/C=C2\N=C(c3ccc(Cl)cc3)N(c3ccccc3)C2=O)cc1OC`, the CC50 in data set [1] was above 10000 nM. In addition, the EC50 with Plasmodium falciparum [2] was above 1150 nM; in the data set on Plasmodium falciparum [3] it was above 1250 nM.

`Cc1c(C)c(C)c(CNC(=S)NN)c(C)c1C` returned a CC50 in data set [1] above 100000 nM. Moreover, the concentration giving a half-maximal response (EC50) with Plasmodium falciparum [2] was above 11400 nM; with Plasmodium falciparum [3] it was 4090 nM.

As to `COc1ccc(OC)c(NC(=O)c2cnn3c(C(F)(F)F)cc(-c4ccc(OC)c(OC)c4)nc23)c1`, in data set [1], the CC50 was above 10000 nM. Besides, the results for the EC50 in the data set on Plasmodium falciparum [2] and in the data set on Plasmodium falciparum [3] were 1140 nM and above 1250 nM, respectively.

In data set [1], `CN(C)c1ccc(/C=C/c2cccc(/C=C/c3ccc(N(C)C)cc3)[n+]2C)cc1` displayed a CC50 of 2530 nM. Also, the EC50 in the data set on Plasmodium falciparum [2] was determined as 296 nM; with Plasmodium falciparum [3], 210 nM.

On to `O=C(Nc1ccccc1)Nc1ccc(S(=O)(=O)Nc2ccc(Br)cc2)cc1`, for which the CC50 in data set [1] was above 10000 nM. Besides, the EC50 with Plasmodium falciparum [2] stood at 1160 nM; in the data set with Plasmodium falciparum [3], 662 nM.

Compound `N#Cc1nc(-c2ccccc2)c(-c2ccc(-c3nc(C#N)c(C#N)nc3-c3ccccc3)cc2)nc1C#N` returned a CC50 in data set [1] above 10000 nM. The results for the EC50 in the data set on Plasmodium falciparum [2] and in the data set on Plasmodium falciparum [3] were 1160 nM and 1610 nM, respectively.

Take `CCCCCCN(CCCCCC)CC(O)c1cc(-c2ccc(Cl)cc2)nc2c(C)cc(C)cc12` (configuration not stated): the CC50 in data set [1] was 51900 nM. The EC50 came out at 5940 nM in the data set on Plasmodium falciparum [2] and 7130 nM with Plasmodium falciparum [3].

As to `COc1ccc(N(CCCNC(=O)CCl)C(=O)Nc2cccc(Cl)c2)cc1`, the 50% cytotoxic concentration (CC50) in data set [1] was above 10000 nM. The figures for the EC50 in the data set on Plasmodium falciparum [2] and in the data set with Plasmodium falciparum [3] were 1150 nM and above 1600 nM, respectively.

Consider `CCOc1ccc(NC(=O)N(CCC(C)C)C(C)c2nc3ccccc3c(=O)n2-c2cccc(Cl)c2C)cc1` (configuration not stated), for which, in data set [1], the CC50 is above 10000 nM. In addition, the EC50 turned out to be 1140 nM with Plasmodium falciparum [2] and 1200 nM in the data set with Plasmodium falciparum [3].

With `COc1ccccc1/C=C/CN1CCN(c2ccccn2)CC1`, in data set [1], the CC50 was above 10000 nM. In addition, the EC50 is above 1150 nM in the data set on Plasmodium falciparum [2] and above 1630 nM in the data set with Plasmodium falciparum [3].

For `CCN(c1ccc(F)cc1)S(=O)(=O)c1ccc2[nH]cc(C(=O)NCCC(C)C)c(=O)c2c1`, the CC50 in data set [1] was above 10000 nM. In addition, the concentration giving a half-maximal response (EC50) with Plasmodium falciparum [2] is above 1150 nM; with Plasmodium falciparum [3], above 1250 nM.

Turning to `CCc1ccc(C(=O)N2CCCn3cccc3C2c2ccc(C(C)(C)C)cc2)cc1` (configuration not stated), in data set [1], the CC50 is above 10000 nM. Also, the results for the concentration for a half-maximal effect (EC50) with Plasmodium falciparum [2] and with Plasmodium falciparum [3] were 1160 nM and above 1250 nM, respectively.

In turn, `CC(=O)Nc1ccc2c(c1)C(=O)N(C(C(=O)NC1CCCCC1)c1ccc([N+](=O)[O-])cc1)[C@@H](c1ccccc1)C(=O)N2` (some centres not stated) had a CC50 in data set [1] of 7680 nM. The EC50 in the data set on Plasmodium falciparum [2] is above 873 nM; in the data set with Plasmodium falciparum [3], above 1250 nM.

The term CC50 denotes the concentration at which the toxic effect on the cells reaches its halfway point. Low readings indicate harm at low concentration, high ones better tolerance by the cells. In general, EC50 refers to the concentration giving half of the maximal effect.
